Like-named read-outs stand apart in the source and are kept apart here.
What was measured:
[1] = system: c-Jun phosphorylation; assay: High throughput microscopy of c-Jun phosphorylation in A375 cells; format: cell-based; conditions: Homo sapiens, A-375
Method: (§1) Cells were fixed in 2% paraformaldehyde for 10 min at room temperature and washed with PBS-T (Phosphate Buffered Saline, 0.1% Tween 20). Cells were permeabilized in methanol for 10 min at room temperature, washed with PBS-T, and blocked in Odyssey Blocking Buffer (LI-COR Biosciences) for 1 hour at room temperature. Cells were incubated overnight at 4° C. with antibody specific for Erk1/2(pT202/pY204), Akt(pS473), c-Jun(pS73), pP38(T180/Y182) and pSTAT3(Y705) (Cell Signaling Technology), pRSK1(S380) and pMSK1(S376) (Epitomics), and NF-κB (Santa Cruz Biotechnology) diluted 1:400 in Odyssey Blocking Buffer. […] Cells were washed twice with PBS and imaged in an imageWoRx high-throughput microscope (Applied Precision). Data were plotted using DataPflex.
In parallel with biochemical evaluation, the ability of the compounds to inhibit JNK activity in cells was investigated using two independent assays formats. This is a critical issue because there are several reported JNK inhibitors with nanomolar biochemical potency that translate into micromolar cellular inhibitors. The most well characterized direct phosphorylation substrate of JNK is the transcription factor c-Jun.

[2] = system: phosphorylation of Msk1; assay: High-throughput microscopy, phosphorylation of Msk1; format: cell-based; conditions: Homo sapiens, A-375, A375 cells, anisomycin stimulation, read-out: Cellular EC50 pMSK1
Method: A375 cells were stimulated with anisomycin (FIGS. 14A and 14C to 14F), IGF-1 (FIG. 14B), IL-6 (FIG. 14G), and TNF-α (FIG. 14H) for sixty minutes.
as §1

[3] = system: NF-kB nuclear translocation; assay: High-throughput microscopy, NF-kB nuclear translocation; format: cell-based; conditions: Homo sapiens, A-375, A375 cells, TNF-α stimulation, read-out: Cellular EC50 NF-kB
Method: (§2) A375 cells were stimulated with anisomycin (FIGS. 14A and 14C to 14F), IGF-1 (FIG. 14B), IL-6 (FIG. 14G), and TNF-α (FIG. 14H) for sixty minutes. The output of multiple signaling pathways was measured using high throughput microscopy at multiple concentrations of four JNK inhibitors and a control compound specific to each pathway DMSO (FIG. 14A), MK2206 (allosteric Akt inhibitor, Haoyuan Chemexpress Co., Limited. Hirai, et al., 2010) (FIG. 14B), PD0325901 (allosteric Mek inhibitor, Haoyuan Chemexpress Co., Limited. Barrett, et al., 2008) (FIGS. 14C and 14D), SB239063 (ATP-competitive p38 inhibitor, Haoyuan Chemexpress Co., Limited. Underwood et al., 2000) (FIGS. 14E and 14F), KIN001-040 (ATP-competitive JAK1,2,3 inhibitor, Haoyuan Chemexpress Co., Limited. Thompson et al., 2002) (FIG. 14G), and KIN001-208 (IKK inhibitor VIII, Haoyuan Chemexpress Co., Limited., Murata, et al., 2004) (FIG. 14H).
(§3) Cells were plated at 7500 cells/well in 96-well microscopy plates (Corning) in recommended media for 24 hours, and then starved in media lacking serum for 16 hours. Cells were pre-treated for 180 minutes with 10-fold stock solutions of JNK inhibitors and for 10 min with control compounds MK2206, PD0325901, SB239063, KIN040, and KIN208 and treated with 10-fold stock solutions of IGF-1, IL-6, TNF-α (all PeproTech), or anisomycin for 60 minutes. Cells were fixed in 2% paraformaldehyde for 10 min at room temperature and washed with PBS-T (Phosphate Buffered Saline, 0.1% Tween 20). Cells were permeabilized in methanol for 10 min at room temperature, washed with PBS-T, and blocked in Odyssey Blocking Buffer (LI-COR Biosciences) for 1 hour at room temperature. Cells were incubated overnight at 4° C. with antibody specific for Erk1/2(pT202/pY204), Akt(pS473), c-Jun(pS73), pP38(T180/Y182) and pSTAT3(Y705) (Cell Signaling Technology), pRSK1(S380) and pMSK1(S376) (Epitomics), and NF-κB (Santa Cruz Biotechnology) diluted 1:400 in Odyssey Blocking Buffer. Cells were washed three times in PBS-T and incubated with rabbit-specific secondary antibody labeled with Alexa Fluor 647 (Invitrogen) diluted 1:2000 in Odyssey Blocking Buffer. Cells were washed once in PBS-T and once in PBS and incubated in 250 ng/ml Hoechst 33342 (Invitrogen) and 1:1000 Whole Cell Stain (blue; Thermo Scientific) solution. Cells were washed twice with PBS and imaged in an imageWoRx high-throughput microscope (Applied Precision). Data were plotted using DataPflex. […]

[4] = system: phosphorylation of STAT3; assay: High-throughput microscopy, phosphorylation of STAT3; format: cell-based; conditions: Homo sapiens, A-375, A375 cells, IL-6 stimulation, read-out: Cellular EC50 pSTAT3
Method: as §2, §3

[5] = biological target: AKT2 (Homo sapiens, UniProt P31751); assay: AKT2 follow-up enzymatic assay; format: biochemical; conditions: follow-up enzymatic assay (FIG. 12)
AKT2, sequence (P31751 whole entry, species assumed): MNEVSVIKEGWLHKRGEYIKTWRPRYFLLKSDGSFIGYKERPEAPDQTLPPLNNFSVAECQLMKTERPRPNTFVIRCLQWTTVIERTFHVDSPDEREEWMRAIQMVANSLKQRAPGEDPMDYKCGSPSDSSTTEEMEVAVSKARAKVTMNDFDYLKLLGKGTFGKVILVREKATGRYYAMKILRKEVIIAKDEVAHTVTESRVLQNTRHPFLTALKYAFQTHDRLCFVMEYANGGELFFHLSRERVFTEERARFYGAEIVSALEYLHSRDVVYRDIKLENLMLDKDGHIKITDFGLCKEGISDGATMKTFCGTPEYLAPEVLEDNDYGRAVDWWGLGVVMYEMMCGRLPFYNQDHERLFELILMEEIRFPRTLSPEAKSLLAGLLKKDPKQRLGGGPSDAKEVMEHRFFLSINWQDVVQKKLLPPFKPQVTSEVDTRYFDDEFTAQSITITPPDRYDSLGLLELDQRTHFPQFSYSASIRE
Source text: This high in vitro selectivity however differed markedly from the large number of targets detected by KiNativ.

[6] = A375 cells, anisomycin stimulation, high-throughput microscopy, Table 4, read-out: Cellular EC50 pc-Jun
[7] = A375 cells, anisomycin stimulation, read-out: p-c-Jun EC50 (nM) A375

EC50 [1, 6] [nM]	EC50 [1, 7] [nM]	EC50 ([1]; Table 5, A375, read-out: E50/A375) [nM]	EC50 [2] [nM]	EC50 [3] [nM]	EC50 [4] [nM]	IC50 [5] [nM]	SMILES
425	338	338	> 10000	> 10000	> 10000		Cc1cc(NC(=O)c2cccc(NC(=O)/C=C/CN(C)C)c2)ccc1Nc1nccc(-c2cccnc2)n1 [JNK-IN-8]
125	134		> 10000	> 10000	> 10000	89.9	CN(C)C/C=C/C(=O)Nc1cccc(C(=O)Nc2ccc(Nc3nccc(/C(C#N)=C4\Nc5ccccc5S4)n3)cc2)c1 [JNK-IN-12]

Source: patent US10144730B2, “Inhibitors of c-Jun-N-terminal kinase (JNK)” (Dana-Farber Cancer Institute, Inc., priority 2011, dated 2018)
